Reference: PubChem BioAssay AID330 (DTP/NCI, 2004)
Values joined by “and” are separate entries in the source; they are usually repeats but may differ in a detail not shown here. Equal values may be shown once. Toxic doses and inconclusive results are not listed. Rule for the calls: active = survival T/C of 150% or more; inactive = T/C below 125% in these data.

Test system: P388 leukemia ip, CD2F1 mice, survival T/C
Test: NCI In Vivo Anticancer Drug Screen. Data for tumor model P388 Leukemia (intraperitoneal) in CD2F1 (CDF1) mice
Details: endpoint: median survival time, higher = longer survival
Outline: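 Mice carrying the transplanted tumor received test compound or vehicle. Survival was recorded in each group, and the value is the treated-group measurement divided by that of the vehicle-treated control group.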

[1] = dose: 12.5 mg/kg/injection, schedule: Q01DX009 (ip), vehicle: saline with Tween-80
[2] = dose: 25.0 mg/kg/injection, schedule: Q01DX009 (ip), vehicle: saline with Tween-80
[3] = dose: 50.0 mg/kg/injection, schedule: Q01DX009 (ip), vehicle: saline with Tween-80
[4] = dose: 100.0 mg/kg/injection, schedule: Q01DX009 (ip), vehicle: saline with Tween-80
[5] = dose: 25.0 mg/kg/injection, schedule: Q01DX001 (ip), vehicle: saline with Tween-80
[6] = dose: 50.0 mg/kg/injection, schedule: Q01DX001 (ip), vehicle: saline with Tween-80
[7] = dose: 100.0 mg/kg/injection, schedule: Q01DX001 (ip), vehicle: saline with Tween-80
[8] = dose: 50.0 mg/kg/injection, schedule: Q01DX005 (ip), vehicle: Klucel (hydroxypropylcellulose) (HPC)
[9] = dose: 100.0 mg/kg/injection, schedule: Q01DX005 (ip), vehicle: Klucel (hydroxypropylcellulose) (HPC)
[10] = dose: 200.0 mg/kg/injection, schedule: Q01DX005 (ip), vehicle: Klucel (hydroxypropylcellulose) (HPC)
[11] = dose: 200.0 mg/kg/injection, schedule: Q01DX009 (ip), vehicle: saline with Tween-80
[12] = dose: 60.0 mg/kg/injection, schedule: Q01DX005 (ip), vehicle: saline with Tween-80
[13] = dose: 120.0 mg/kg/injection, schedule: Q01DX005 (ip), vehicle: saline with Tween-80
[14] = dose: 240.0 mg/kg/injection, schedule: Q01DX005 (ip), vehicle: saline with Tween-80
[15] = dose: 50.0 mg/kg/injection, schedule: Q01DX009 (ip), vehicle: saline
[16] = dose: 25.0 mg/kg/injection, schedule: Q01DX009 (ip), vehicle: Klucel (hydroxypropylcellulose) (HPC)
[17] = dose: 100.0 mg/kg/injection, schedule: Q01DX009 (ip), vehicle: Klucel (hydroxypropylcellulose) (HPC)
[18] = dose: 50.0 mg/kg/injection, schedule: Q01DX009 (ip), vehicle: Klucel (hydroxypropylcellulose) (HPC)
[19] = dose: 200.0 mg/kg/injection, schedule: Q01DX009 (ip), vehicle: Klucel (hydroxypropylcellulose) (HPC)
[20] = dose: 25.0 mg/kg/injection, schedule: Q01DX009 (ip), vehicle: saline
[21] = dose: 50.0 mg/kg/injection, schedule: Q01DX005 (ip), vehicle: saline with Tween-80
[22] = dose: 100.0 mg/kg/injection, schedule: Q01DX005 (ip), vehicle: saline with Tween-80
[23] = dose: 200.0 mg/kg/injection, schedule: Q01DX005 (ip), vehicle: saline with Tween-80

Measured: T/C

O=C1OC2C(O1)C1(c3ccccc3)C(=O)C2(c2ccccc2)C(c2ccccc2)=C1c1ccccc1 (centres undefined)
inactive: dose: 6.25 mg/kg/injection, schedule: Q01DX009 (ip), vehicle: saline with Tween-80 107 % of control and 96 % of control | [1] 106 % of control and 94 % of control | [2] 101 % of control and 96 % of control | [3] 98 % of control and 105 % of control | [4] 89 % of control

CC1=CCc2c(c(NS(=O)(=O)c3ccccc3)c3ccccc3c2NS(=O)(=O)c2ccccc2)C1
inactive: [5] 105 % of control | [6] 90 % of control | [7] 90 % of control

Clc1cccc(O[Si]23OCCN(CCO2)CCO3)c1
inactive: [8] 109 % of control | [9] 106 % of control | [10] 102 % of control

CC(C)c1ccc(C2OCC(C)(C)C(C(C)C)O2)cc1 (centres undefined)
inactive: dose: 100.0 mg/kg/injection, schedule: Q04DX003 (ip), vehicle: saline with Tween-80 108 % of control | dose: 200.0 mg/kg/injection, schedule: Q04DX003 (ip), vehicle: saline with Tween-80 105 % of control | dose: 400.0 mg/kg/injection, schedule: Q04DX003 (ip), vehicle: saline with Tween-80 109 % of control

c1ccc2c3c([nH]c2c1)CCc1cncnc1-3
inactive: [8] 91 % of control and 97 % of control | [9] 90 % of control and 103 % of control | [10] 99 % of control and 115 % of control

O=C(Oc1ccccc1)C(Cc1ccccc1)NC(=O)C(F)(F)F (centres undefined)
inactive: [3] 108 % of control | [4] 99 % of control | [11] 103 % of control

CNc1nc(N)nc(N)c1N1CCN(c2ccc(C(=O)NC(CCCC(=O)O)C(=O)O)cc2)CC1 (centres undefined)
inactive: [12] 99 % of control | [13] 100 % of control | [14] 95 % of control

CN1CC[C@]23c4c5ccc(O)c4O[C@H]2C(=O)CC[C@@]3(O)[C@H]1C5
inactive: [15] 94 % of control | dose: 100.0 mg/kg/injection, schedule: Q01DX009 (ip), vehicle: saline 109 % of control | dose: 200.0 mg/kg/injection, schedule: Q01DX009 (ip), vehicle: saline 102 % of control

Cc1sc(NCc2ccccc2)c(C#N)c1C
inactive: dose: 6.25 mg/kg/injection, schedule: Q01DX009 (ip), vehicle: Klucel (hydroxypropylcellulose) (HPC) 101 % of control | dose: 12.5 mg/kg/injection, schedule: Q01DX009 (ip), vehicle: Klucel (hydroxypropylcellulose) (HPC) 97 % of control | [16] 93 % of control | [17] 86 % of control

c1c2c(cc3c1OCO3)Cc1cc3c(cc1Cc1cc4c(cc1C2)OCO4)OCO3
inactive: [3] 108 % of control | [4] 108 % of control | [11] 100 % of control

c1ccc(N/N=C2/c3ccccc3CC23OC3c2ccccc2)cc1 (centres undefined)
inactive: [16] 90 % of control | [18] 90 % of control | [17] 88 % of control | [19] 87 % of control | dose: 400.0 mg/kg/injection, schedule: Q01DX009 (ip), vehicle: Klucel (hydroxypropylcellulose) (HPC) 88 % of control

O=C1CC2(C(=O)O1)c1ccccc1-c1ccccc12
inactive: [12] 111 % of control | [13] 105 % of control | [14] 112 % of control

CS(C)(O)NC(N)=O
inactive: dose: 50.0 mg/kg/injection, schedule: Q01DX005 (ip), vehicle: DMSO 121 % of control | dose: 100.0 mg/kg/injection, schedule: Q01DX005 (ip), vehicle: DMSO 119 % of control | dose: 100.0 mg/kg/injection, schedule: Q01DX005 (ip), vehicle: other 121 % of control | dose: 200.0 mg/kg/injection, schedule: Q01DX005 (ip), vehicle: DMSO 114 % of control | dose: 400.0 mg/kg/injection, schedule: Q01DX005 (ip), vehicle: DMSO 124 % of control

Cc1cc(C)c[n+]([O-])c1
inactive: dose: 12.5 mg/kg/injection, schedule: Q01DX009 (ip), vehicle: saline 111 % of control | [20] 111 % of control | [15] 111 % of control

CCN(CC)Cc1c(C)[nH]c2ccc(NC(C)=O)cc2c1=O
inactive: [3] 116 % of control | [4] 114 % of control

Clc1nc(C(Cl)Cl)nc2sc3c(c12)CCCC3
inactive: [12] 98 % of control | [13] 94 % of control | [14] 96 % of control

O=C(/C=C/c1ccccc1)NC1C=Nc2ccccc2NC1=O (centres undefined)
inactive: [12] 92 % of control | [13] 92 % of control | [14] 99 % of control

O=C(c1ccccc1)c1cc([N+](=O)[O-])cc([N+](=O)[O-])c1
inactive: [4] 104 % of control | [11] 97 % of control | dose: 400.0 mg/kg/injection, schedule: Q01DX009 (ip), vehicle: saline with Tween-80 97 % of control

CN(C)c1cc(N(C)C)c2cc(C#N)ccc2n1
inactive: [18] 99 % of control | [17] 98 % of control | [19] 107 % of control

Oc1ccccc1C=Nc1ccccc1N=Cc1ccccc1O.[Zn]
inactive: [18] 97 % of control | [17] 98 % of control | [19] 95 % of control

CC1(C)C(=S)C(C)(C)C1=S
inactive: [8] 104 % of control | [9] 104 % of control | [10] 108 % of control

O=[N+]([O-])c1cnc2ccccn12
inactive: [1] 100 % of control | [2] 93 % of control | [3] 94 % of control | [4] 95 % of control

S=C(NCCCCCCNC(=S)Nc1ccc2ccccc2n1)Nc1ccc2ccccc2n1
inactive: [18] 100 % of control | [17] 97 % of control | [19] 91 % of control

CC1(Cn2ccc(=O)[nH]c2=O)CC(C2(C)OCCO2)C(=O)O1 (centres undefined)
inactive: [12] 102 % of control | [13] 102 % of control | [14] 101 % of control

COC1NC(=S)N(Cc2ccccc2)C1(C)C (centres undefined)
inactive: dose: 50.0 mg/kg/injection, schedule: Q01DX009 (ip), vehicle: suspension in saline 102 % of control | dose: 100.0 mg/kg/injection, schedule: Q01DX009 (ip), vehicle: suspension in saline 97 % of control | dose: 200.0 mg/kg/injection, schedule: Q01DX009 (ip), vehicle: suspension in saline 93 % of control

CCN(CC#N)c1ccc(C=Nc2ccc(OC)cc2OC)cc1
inactive: [3] 91 % of control | [4] 93 % of control | [11] 97 % of control

C=CCC(NC(=O)c1ccccc1)C(=O)O (centres undefined)
inactive: [3] 100 % of control | [4] 98 % of control | [11] 95 % of control

O=C1OC(c2ccccc2)(c2ccc(Cl)cc2)CC1/C=C(\c1ccccc1)c1ccc(Cl)cc1 (centres undefined)
inactive: [21] 96 % of control | [22] 90 % of control | [23] 91 % of control

NC(=S)c1ccc(C=Nc2ccccc2)cc1
inactive: dose: 50.0 mg/kg/injection, schedule: Q01DX001 (ip), vehicle: Klucel (hydroxypropylcellulose) (HPC) 101 % of control | dose: 100.0 mg/kg/injection, schedule: Q01DX001 (ip), vehicle: Klucel (hydroxypropylcellulose) (HPC) 99 % of control | dose: 200.0 mg/kg/injection, schedule: Q01DX001 (ip), vehicle: Klucel (hydroxypropylcellulose) (HPC) 100 % of control

C=C1C(=O)OC2C1CC/C(C)=C/CCC1(C)OC21 (centres undefined)
inactive: dose: 8.75 mg/kg/injection, schedule: Q01DX009 (ip), vehicle: Klucel (hydroxypropylcellulose) (HPC) 106 % of control | dose: 17.5 mg/kg/injection, schedule: Q01DX009 (ip), vehicle: Klucel (hydroxypropylcellulose) (HPC) 106 % of control

[N-]=[N+]=CC(=O)C1OC1c1ccc2ccccc2c1 (centres undefined)
inactive: dose: 25.0 mg/kg/injection, schedule: Q01DX005 (ip), vehicle: saline with Tween-80 93 % of control | [21] 100 % of control | [22] 99 % of control | [23] 105 % of control

CC1CCC(OC(=O)N(CCCl)N=O)CC1 (centres undefined)
inactive: dose: 3.12 mg/kg/injection, schedule: Q01DX001 (ip), vehicle: saline with Tween-80 100 % of control | dose: 6.25 mg/kg/injection, schedule: Q01DX001 (ip), vehicle: saline with Tween-80 108 % of control | dose: 12.5 mg/kg/injection, schedule: Q01DX001 (ip), vehicle: saline with Tween-80 111 % of control | [5] 118 % of control | [6] 105 % of control | [7] 114 % of control and 86 % of control | dose: 150.0 mg/kg/injection, schedule: Q01DX001 (ip), vehicle: saline with Tween-80 100 % of control

CN(C)NP(=S)(NN(C)C)Oc1ccccc1
inactive: [21] 117 % of control | [22] 99 % of control

Cn1nccc1N
inactive: [20] 117 % of control | [15] 108 % of control

Cc1c(-c2ccncc2)nc2ccccc2c1C(=O)O
inactive: [21] 100 % of control | [22] 100 % of control | [23] 97 % of control
